Values quoted from earlier work, collected in US20050256097A1, “Pharmaceutical solution formulations containing 17-AAG” (Kosan Biosciences, Inc., priority 2004, published 2005).

| water solubility (in words) | water solubility (neutral pH) | SMILES |
| --- | --- | --- |
| very poor water solubility | about 0.1 mg/mL | C=CCNC1=C2C[C@@H](C)C[C@H](OC)[C@H](O)[C@@H](C)/C=C(\C)[C@H](OC(N)=O)[C@@H](OC)/C=C\C=C(/C)C(=O)NC(=CC1=O)C2=O [Sample 17-AAG, 17-allylamino-17-demethoxygeldanamycin] |
| very poor water solubility |  | COC1=C2C[C@@H](C)C[C@H](OC)[C@H](O)[C@@H](C)/C=C(\C)[C@H](OC(N)=O)[C@@H](OC)/C=C\C=C(/C)C(=O)NC(=CC1=O)C2=O [geldanamycin, Geldanamycin] |

| SMILES | water solubility (in words) | water solubility (neutral pH) |
| --- | --- | --- |
| COC1/C=C\C=C(/C)C(=O)NC2=CC(=O)C(NCCN(C)C)=C(C[C@@H](C)C[C@H](OC)[C@H](O)[C@@H](C)/C=C(\C)[C@@H]1OC(N)=O)C2=O (stereo partly shown) [Sample 17-DMAG, 17-(2-dimethylaminoethyl)amino-17-demethoxygeldanamycin] | more soluble |  |
